Measurements published in ChEMBL document CHEMBL5247653, “Discovery of Clinical Candidate ACT-777991, a Potent CXCR3 Antagonist for Antigen-Driven and Inflammatory Pathologies” (J Med Chem, 2023).

What was measured:
[1] = biological target: T1, C-X-C chemokine receptor type 3 (Homo sapiens, UniProt P49682); assay: Antagonist activity at CXCR3 (unknown origin) in human T cells in venous blood assessed as receptor internalization incubated for 30 mins in presence of CXCL10 by flow cytometric analysis; type: cell-based, T cell
T1 sequence (P49682 whole entry): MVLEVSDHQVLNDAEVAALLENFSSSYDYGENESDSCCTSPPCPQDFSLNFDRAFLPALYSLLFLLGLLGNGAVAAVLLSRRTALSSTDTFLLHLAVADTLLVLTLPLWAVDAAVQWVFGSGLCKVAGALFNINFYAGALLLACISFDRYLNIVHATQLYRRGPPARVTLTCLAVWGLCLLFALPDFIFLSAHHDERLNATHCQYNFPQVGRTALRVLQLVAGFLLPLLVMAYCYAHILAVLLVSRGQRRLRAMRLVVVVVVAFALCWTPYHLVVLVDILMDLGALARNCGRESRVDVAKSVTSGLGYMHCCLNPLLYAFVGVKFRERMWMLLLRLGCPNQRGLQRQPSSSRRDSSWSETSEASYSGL

[2] = biological target: Voltage-gated inwardly rectifying potassium channel KCNH2 (Homo sapiens, UniProt Q12809); assay: Inhibition of human ERG stably expressed in CHO cells at -80 mV holding voltage by automated QPatch electrophysiological assay; type: toxicity, cell-based
Chain of Voltage-gated inwardly rectifying potassium channel KCNH2 (Q12809 whole entry): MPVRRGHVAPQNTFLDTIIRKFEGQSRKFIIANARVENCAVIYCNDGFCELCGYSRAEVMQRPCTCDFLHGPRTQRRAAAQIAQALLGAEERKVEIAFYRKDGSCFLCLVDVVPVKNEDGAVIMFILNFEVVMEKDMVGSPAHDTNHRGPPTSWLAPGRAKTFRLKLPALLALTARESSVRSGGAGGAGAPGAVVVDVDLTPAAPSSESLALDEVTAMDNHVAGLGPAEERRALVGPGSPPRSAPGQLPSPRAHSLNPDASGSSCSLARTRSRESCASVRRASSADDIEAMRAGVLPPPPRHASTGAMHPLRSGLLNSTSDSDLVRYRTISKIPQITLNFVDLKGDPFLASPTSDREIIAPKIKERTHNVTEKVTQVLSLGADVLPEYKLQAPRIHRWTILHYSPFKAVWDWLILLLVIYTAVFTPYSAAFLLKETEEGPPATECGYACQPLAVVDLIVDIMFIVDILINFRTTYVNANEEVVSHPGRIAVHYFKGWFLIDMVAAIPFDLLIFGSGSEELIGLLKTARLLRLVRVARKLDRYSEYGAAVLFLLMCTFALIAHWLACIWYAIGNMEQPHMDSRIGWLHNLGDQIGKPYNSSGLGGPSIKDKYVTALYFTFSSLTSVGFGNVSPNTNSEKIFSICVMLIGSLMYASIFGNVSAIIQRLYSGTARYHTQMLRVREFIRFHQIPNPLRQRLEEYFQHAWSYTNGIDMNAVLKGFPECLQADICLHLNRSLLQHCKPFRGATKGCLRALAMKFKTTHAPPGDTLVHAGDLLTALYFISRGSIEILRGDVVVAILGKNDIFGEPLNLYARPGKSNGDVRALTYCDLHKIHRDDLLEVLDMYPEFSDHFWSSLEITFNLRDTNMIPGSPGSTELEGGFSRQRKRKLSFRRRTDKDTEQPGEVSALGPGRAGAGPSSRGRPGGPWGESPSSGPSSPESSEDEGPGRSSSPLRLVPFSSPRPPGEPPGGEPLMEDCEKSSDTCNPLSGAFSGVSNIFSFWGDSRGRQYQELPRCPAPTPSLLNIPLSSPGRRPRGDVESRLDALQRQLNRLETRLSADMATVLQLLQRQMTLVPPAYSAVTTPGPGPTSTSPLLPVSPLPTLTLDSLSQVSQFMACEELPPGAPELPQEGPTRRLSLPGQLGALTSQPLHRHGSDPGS

[3] = Metabolic stability in human liver microsomes assessed as intrinsic clearance at 1 uM and measured upto 15 mins in presence of NADPH regenerating system by LC-MS/MS analysis; type: ADME, Microsome; settings: read-out: CLH
[4] = Metabolic stability in human hepatocytes assessed as intrinsic clearance per 10^6 cells at 1 uM by LC-MS/MS analysis; type: ADME, cell-based, Hepatocyte
CYP2D6 = CYP2D6 (Homo sapiens, UniProt P10635); assay: […] recombinant human CYP2D6 mediated drug metabolism in human liver microsomes assessed as intrinsic clearance at 1 uM incubated for 45 mins in presence of NADPH regenerating system by LC-MS/MS analysis; type: ADME, Microsome; settings: recombinant human CYP2D6, read-out: CLH
Chain of CYP2D6 (P10635 whole entry): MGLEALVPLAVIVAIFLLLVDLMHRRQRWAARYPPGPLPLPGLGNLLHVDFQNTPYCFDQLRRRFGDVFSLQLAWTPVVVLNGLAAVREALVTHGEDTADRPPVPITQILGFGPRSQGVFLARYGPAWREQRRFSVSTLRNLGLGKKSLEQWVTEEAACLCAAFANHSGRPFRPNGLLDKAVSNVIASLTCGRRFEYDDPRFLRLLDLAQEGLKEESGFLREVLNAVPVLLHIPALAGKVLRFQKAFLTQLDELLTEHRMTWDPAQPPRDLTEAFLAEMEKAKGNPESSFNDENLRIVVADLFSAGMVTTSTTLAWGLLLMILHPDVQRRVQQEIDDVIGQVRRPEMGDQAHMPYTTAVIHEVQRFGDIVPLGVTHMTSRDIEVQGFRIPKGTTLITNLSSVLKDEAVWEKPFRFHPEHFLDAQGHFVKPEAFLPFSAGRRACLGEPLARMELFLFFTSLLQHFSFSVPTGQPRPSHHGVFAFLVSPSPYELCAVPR

[5] = Lipophilicity, log D of compound; type: physicochemical; settings: octanol/water
[6] = Protein binding in dog plasma assessed as fraction unbound at 1 uM incubated for 6 hrs by rapid equilibrium dialysis based LC-MS/MS analysis; type: ADME, cell-free, Canis lupus familiaris
[7] = Metabolic stability in dog hepatocytes assessed as intrinsic clearance per 10^6 cells at 1 uM by LC-MS/MS analysis; type: ADME, cell-based, Canis lupus familiaris, Hepatocyte
[8] = Total clearance in Beagle dog plasma at 1 mg/kg, iv; type: ADME, organism-based, Canis lupus familiaris
[9] = Metabolic stability in rat liver microsomes assessed as intrinsic clearance at 1 uM and measured upto 15 mins in presence of NADPH regenerating system by LC-MS/MS analysis; type: ADME, Microsome; settings: read-out: CLH
[10] = Metabolic stability in dog liver microsomes assessed as intrinsic clearance at 1 uM and measured upto 15 mins in presence of NADPH regenerating system by LC-MS/MS analysis; type: ADME, Canis lupus familiaris, Microsome; settings: read-out: CLH
[11] = Metabolic stability in rat hepatocytes assessed as intrinsic clearance per 10^6 cells at 1 uM by LC-MS/MS analysis; type: ADME, cell-based, Hepatocyte
[12] = Protein binding in rat plasma assessed as fraction unbound at 1 uM incubated for 6 hrs by rapid equilibrium dialysis based LC-MS/MS analysis; type: ADME, cell-free
[13] = Unbound clearance in Beagle dog plasma at 1 mg/kg, iv; type: ADME, organism-based, Canis lupus familiaris; settings: in vivo
[14] = Protein binding in human plasma assessed as fraction unbound at 1 uM incubated for 6 hrs by rapid equilibrium dialysis based LC-MS/MS analysis; type: ADME, cell-free
[15] = Drug excretion in urine of Wistar rat assessed as unchanged drug at 3 mg/kg, iv; type: ADME, organism-based; settings: read-out: Drug excretion
[16] = Total clearance in Wistar rat plasma at 0.5 mg/kg, iv; type: ADME, organism-based
CYP3A4 = CYP3A4 (Homo sapiens, UniProt P08684); assay: […] recombinant human CYP3A4 mediated drug metabolism in human liver microsomes assessed as intrinsic clearance at 1 uM incubated for 45 mins in presence of NADPH regenerating system by LC-MS/MS analysis; type: ADME, Microsome; settings: read-out: CLH
Chain of CYP3A4 (P08684 whole entry): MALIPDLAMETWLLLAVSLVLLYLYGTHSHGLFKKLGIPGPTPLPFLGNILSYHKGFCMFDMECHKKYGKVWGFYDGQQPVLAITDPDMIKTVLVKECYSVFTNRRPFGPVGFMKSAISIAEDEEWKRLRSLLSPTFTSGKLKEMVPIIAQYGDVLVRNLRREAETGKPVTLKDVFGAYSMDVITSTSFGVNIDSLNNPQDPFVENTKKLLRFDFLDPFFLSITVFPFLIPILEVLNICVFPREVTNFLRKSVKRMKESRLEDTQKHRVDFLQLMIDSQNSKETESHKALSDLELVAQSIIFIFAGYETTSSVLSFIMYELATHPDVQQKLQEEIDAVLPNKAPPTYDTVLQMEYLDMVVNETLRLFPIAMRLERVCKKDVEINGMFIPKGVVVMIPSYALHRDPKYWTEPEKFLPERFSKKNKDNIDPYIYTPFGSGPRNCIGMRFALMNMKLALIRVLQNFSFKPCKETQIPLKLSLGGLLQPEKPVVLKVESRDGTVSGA

[17] = Unbound clearance in Wistar rat plasma at 0.5 mg/kg, iv; type: ADME, organism-based; settings: in vivo

Row | SMILES | IC50 [1] [nM] | microsomal CLint at 1 µM [3] [µL/min/mg] | IC50 [2] [nM] | other results
1 | CCc1ccn(CC(=O)N2CCN(c3sc(C(F)(F)F)nc3-c3cnc(C(F)(F)F)nc3)C[C@H]2CCO)n1 | 24.9 | 112 | 2900 | 
2 | Cc1ccn(CC(=O)N2CCN(c3sc(C(F)(F)F)nc3-c3cnc(C(F)(F)F)nc3)C[C@@H]2CO)n1 | 74.6 | < 10 | 21000 | CLH [4]: < 2 µL/min/mg; microsomal CLint at 1 µM (CYP2D6): 0.41 µL/min/mg; logD [5]: 3; fraction unbound at 6 h, 1 µM [6]: 0.22; CLH [7]: 2.4 µL/min/mg; clearance [8]: 22 mL/min/kg; microsomal CLint at 1 µM [9]: 13 µL/min/mg; microsomal CLint at 1 µM [10]: 16 µL/min/mg; CLH [11]: 2.8 µL/min/mg; fraction unbound at 6 h, 1 µM [12]: 0.01; CL free [13]: 100 mL/min/kg; fraction unbound at 6 h, 1 µM [14]: 0.11; dose excreted [15]: 1%; clearance [16]: 7.1 mL/min/kg; microsomal CLint at 1 µM (CYP3A4): 1.18 µL/min/mg; CL free [17]: 710 mL/min/kg
3 | O=C(Cn1cnc(C2CC2)n1)N1CCN(c2sc(C(F)(F)F)nc2-c2cnc(C(F)(F)F)nc2)C[C@H]1CCO | 59.1 | 12 | 7300 | 
4 | CC(C)c1ncn(CC(=O)N2CCN(c3sc(C(F)(F)F)nc3-c3cnc(C(F)(F)F)nc3)C[C@H]2CCO)n1 | 63 | 22 | 5800 | 
5 | Cc1ccn(CC(=O)N2CCN(c3sc(C(F)(F)F)nc3-c3cnc(C(F)(F)F)nc3)C[C@H]2CO)n1 | 53.2 | < 10 | 13000 | microsomal CLint at 1 µM (CYP2D6): 0.41 µL/min/mg; microsomal CLint at 1 µM (CYP3A4): 0.72 µL/min/mg
6 | CCc1nc(C)nn1CC(=O)N1CCN(c2sc(C(F)(F)F)nc2-c2cnc(C(F)(F)F)nc2)C[C@H]1C | 680 |  | 12000 | 
7 | CCc1ccn(CC(=O)N2CCN(c3sc(C(F)(F)F)nc3-c3cnc(C(F)(F)F)nc3)C[C@H]2CO)n1 | 33.7 | 81 | 8600 | 
8 | CCc1ncn(CC(=O)N2CCN(c3sc(C(F)(F)F)nc3-c3cnc(C(F)(F)F)nc3)C[C@@H]2CO)n1 | 82 | < 10 | > 60000 | microsomal CLint at 1 µM (CYP2D6): 0.13 µL/min/mg; microsomal CLint at 1 µM (CYP3A4): 0.27 µL/min/mg
9 | Cc1ncn(CC(=O)N2CCN(c3sc(C(F)(F)F)nc3-c3cnc(C(F)(F)F)nc3)C[C@@H]2CCO)n1 | 643 | < 10 | > 60000 | 
10 | CCc1nc(C)n(CC(=O)N2CCN(c3sc(C(F)(F)F)nc3-c3cnc(C(F)(F)F)nc3)C[C@H]2C)n1 | 483 |  | 8700 | 

The next lines start with results.

Row | IC50 [1] [nM] | microsomal CLint at 1 µM [3] [µL/min/mg] | SMILES | IC50 [2] [nM] | other results
11 | 167 | < 10 | Cc1ncn(CC(=O)N2CCN(c3sc(C(F)(F)F)nc3-c3cnc(C(F)(F)F)nc3)C[C@H]2CO)n1 | > 60000 | 
12 | 477 |  | Cc1ncnn1CC(=O)N1CCN(c2sc(C(F)(F)F)nc2-c2cnc(C(F)(F)F)nc2)C[C@H]1C | 16000 | 
13 | 240 |  | C[C@@H]1CN(c2sc(C(F)(F)F)nc2-c2cnc(C(F)(F)F)nc2)CCN1C(=O)Cn1cnc(C(C)(C)C)n1 | 7500 | 
14 | 2150 |  | C[C@@H]1CN(c2sc(C(F)(F)F)nc2-c2cnc(C(F)(F)F)nc2)CCN1C(=O)Cn1cnc(C(N)=O)n1 | > 60000 | 
15 | 356 |  | CC(O)c1ncn(CC(=O)N2CCN(c3sc(C(F)(F)F)nc3-c3cnc(C(F)(F)F)nc3)C[C@H]2C)n1 (stereo partly drawn) | > 60000 | 
16 | 117 |  | CCc1ncn(CC(=O)N2CCN(c3sc(C(F)(F)F)nc3-c3cnc(C(F)(F)F)nc3)C[C@H]2C)n1 | 12000 | 
17 | 191 |  | C[C@@H]1CN(c2sc(C(F)(F)F)nc2-c2cnc(C(F)(F)F)nc2)CCN1C(=O)Cn1cnc(C(F)(F)F)n1 | 3900 | 
